In patent publication US20240002339A1, “THERAPEUTIC COMPOUNDS AND METHODS” (Regents of the University of Minnesota, priority 2022, published 2024) one finds IC50 and Kd data, which are given here for 50 compounds.

In test [1] the target is T1, CDK2 (Homo sapiens (Human), UniProt P24941). Description: p-Cl-ANS displacement assay (fluorescent binding assay).
The target of test [2] is T1, CDK2. The test is described as follows: Isothermal titration calorimetry (ITC). Format: binding. (In ITC the heat of successive injections is recorded.)
Another test addresses GST-tagged CDK2 (Homo sapiens (Human), UniProt P24941). Description: Surface plasmon resonance (SPR). The format is binding. The note with it: read-out: SPR Kd (SSA).
Another test addresses CDK2/cyclin A (Homo sapiens (Human), UniProt P24941). Description: ADP-Glo enzymatic activity assay. Format: biochemical. A general note: ADP-Glo first removes unused ATP, then detects ADP through luciferase.

pIC50, pKd: −log10 of the molar value.

Usually pIC50 stands for the IC50 on a negative log10 scale, so that one unit is a factor of ten. A lower pIC50 goes with a high IC50. One may read the pKd as −log10 of the Kd, conventionally taken in molar units. Take `Cc1cc(NCCc2c[nH]c3ccccc23)c(C(=O)O)cc1[N+](=O)[O-]` [Example 6]: the pIC50 at CDK2 [1] was 5.38. Also, at CDK2 [2], the pKd is 5.24. For the compound `Nc1c([N+](=O)[O-])ccc(NCCc2c[nH]c3ccccc23)c1C(=O)O` [Example 7], the pIC50 at CDK2 [1] was 5.39. On CDK2 [2], this compound gave a pKd of 5.36. At CDK2 [1], `O=C(O)c1c(O)cccc1NCCc1c[nH]c2ccccc12` [Example 8] had a pIC50 of 4.70. Besides, the pKd at CDK2 [2] was 5.23. Consider `O=C(O)c1c(NCCc2c[nH]c3ccccc23)ccc([N+](=O)[O-])c1O` [Example 9], for which the pIC50 at CDK2 [1] was 6.18. On CDK2 [2], this compound gave a negative logarithm of the Kd (pKd) of 6.44.

As for `O=C(O)c1cc([N+](=O)[O-])ccc1NCCc1c[nH]c2cccc(F)c12` [Example 17], on CDK2 [1], the pIC50 is 5.68.

As to `O=C(O)c1cc([N+](=O)[O-])ccc1NCCc1c[nH]c2ccc(F)cc12` [Example 19], at CDK2 [1], the pIC50 is 5.60. For the compound `O=C(O)c1cc([N+](=O)[O-])ccc1NCCc1c[nH]c2c(F)cccc12` [Example 20], the negative logarithm of the IC50 (pIC50) at CDK2 [1] was 5.22. `COc1ccc2c(CCNc3ccc([N+](=O)[O-])cc3C(=O)O)c[nH]c2c1` [Example 23]: at CDK2 [1], the negative-log IC50 (pIC50) is 5.82. On to `O=C(O)c1cc([N+](=O)[O-])ccc1NCCc1c[nH]c2cc(OC(F)(F)F)ccc12` [Example 25], for which, on CDK2 [1], the pIC50 is 6.03.

Compound `O=C(O)c1cc(C(F)(F)F)ccc1NCCc1c(CO)[nH]c2ccccc12` [Example 27] gave a negative logarithm of the IC50 (pIC50) at CDK2 [1] of 6.20. For the compound `O=C(O)c1cc(C(F)(F)F)ccc1NCCc1c[nH]c2ccc([N+](=O)[O-])cc12` [Example 28], the negative-log IC50 (pIC50) on CDK2 [1] was 6.18. On CDK2 [1], `N#Cc1ccc2[nH]cc(CCNc3ccc(C(F)(F)F)cc3C(=O)O)c2c1` [Example 29] had a negative logarithm of the IC50 (pIC50) of 5.21. For the compound `O=C(O)c1cc(C(F)(F)F)ccc1NCCc1c[nH]c2c(O)cccc12` [Example 31], on CDK2 [1], the pIC50 is 5.47. With `FC(F)(F)c1ccc(NCCc2c[nH]c3ccccc23)c(-c2nnn[nH]2)c1` [Example 33], the pIC50 on CDK2 [1] is 5.18. On CDK2 [1], `O=C(O)c1cc(C(F)(F)F)ccc1NCCc1c[nH]c2cc(F)ccc12` [Example 34] gave a pIC50 of 6.77. The pKd at CDK2 [2] was 6.68. As to `O=C(O)c1cc(C(F)(F)F)ccc1NCCc1c[nH]c2cc(Cl)ccc12` [Example 35], the negative logarithm of the Kd (pKd) on GST-tagged CDK2 was 7.62; on CDK2 [2] it was 7.51. For the same compound, the values for the pIC50 on CDK2 [1] and against CDK2/cyclin A were 7.04 and 7.06, respectively. Regarding `FC(F)(F)c1ccc(NCCc2c[nH]c3cc(Br)ccc23)c(-c2nnn[nH]2)c1` [Example 37], at CDK2 [1], the pIC50 is 6.20.

`O=C(O)c1cc(SC(F)(F)F)ccc1NCCc1c[nH]c2ccccc12` [Example 40] showed a pIC50 on CDK2 [1] of 6.82. The compound `O=C(O)c1cc(F)c(F)cc1NCCc1c[nH]c2ccccc12` [Example 41] showed a pIC50 at CDK2 [1] of 5.62. Take `O=C(O)c1cc2c(cc1NCCc1c[nH]c3ccccc13)CCCC2` [Example 42]: the pIC50 at CDK2 [1] was 5.17.

In turn, `O=C(O)c1cc2ccccc2cc1NCCc1c[nH]c2ccccc12` [Example 43] gave a pIC50 at CDK2 [1] of 5.57. For the compound `Cc1[nH]c2cc(Cl)cc(Cl)c2c1CCNc1ccc(C(F)(F)F)cc1C(=O)O` [Example 44], the pIC50 at CDK2 [1] was 6.03.

`Cc1[nH]c2c(Cl)c(Cl)ccc2c1CCNc1ccc(C(F)(F)F)cc1C(=O)O` [Example 45]: the pIC50 on CDK2 [1] was 5.80. On CDK2 [1], `O=C(O)c1cc(C(F)(F)F)ccc1SCCc1c[nH]c2ccccc12` [Example 46] had a negative-log IC50 (pIC50) of 6.00. `Cc1[nH]c2cc(F)ccc2c1CC(C)Nc1ccc(C(F)(F)F)cc1C(=O)O` (stereo not shown) [Example 47] showed a pIC50 on CDK2 [1] of 6.77. As to `O=C(O)c1cc(OC(F)(F)F)ccc1NCCc1c[nH]c2cc(F)ccc12` [Example 48], the negative logarithm of the IC50 (pIC50) at CDK2 [1] is 6.74. On CDK2 [1], `CCOc1cc(NCCc2c[nH]c3cc(C#N)ccc23)c(C(=O)O)cc1OCC` [Example 62, 2-((2-(6-Cyano-1H-indol-3-yl)ethyl)amino)-4,5-diethoxybenzoic acid] gave a negative-log IC50 (pIC50) of 6.11. The same measure, in the same setting: next, `O=C(O)c1cc(OC(F)(F)F)ccc1NCCc1c[nH]c2cc(Br)ccc12` [Example 63, 2-((2-(6-Bromo-1H-indol-3-yl)ethyl)amino)-5-(trifluoromethoxy)benzoic acid]: above 7.00. Turning to `O=C(O)c1cc(SC(F)(F)F)ccc1NCCc1c(CO)[nH]c2ccccc12` [Example 64, 2-((2-(2-(Hydroxymethyl)-1H-indol-3-yl)ethyl)amino)-5-((trifluoromethyl)thio)benzoic acid], on CDK2 [1], the pIC50 is 5.42. In turn, `O=C(O)c1cc(SC(F)(F)F)ccc1NCCc1c(CO)[nH]c2cc(Br)ccc12` [Example 65, 2-((2-(6-Bromo-2-(hydroxymethyl)-1H-indol-3-yl)ethyl)amino)-5-((trifluoromethyl)thio)benzoic acid] gave a pIC50 at CDK2 [1] of 6.47.

`O=C(O)c1cc(SC(F)(F)F)ccc1NCCc1c[nH]c2cc(Br)ccc12` [Example 66, 2-((2-(6-Bromo-1H-indol-3-yl)ethyl)amino)-5-((trifluoromethyl)thio)benzoic acid] gave a pIC50 at CDK2 [1] of 6.77. Same read-out and setting: next, `N#Cc1ccc2c(CCNc3ccc(SC(F)(F)F)cc3C(=O)O)c[nH]c2c1` [Example 67, 2-((2-(6-Cyano-1H-indol-3-yl)ethyl)amino)-5-((trifluoromethyl)thio)benzoic acid]: above 7.00; `Cc1c([N+](=O)[O-])ccc(NCCc2c[nH]c3ccccc23)c1C(=O)O` [Example 68, 6-((2-(1H-Indol-3-yl)ethyl)amino)-2-methyl-3-nitrobenzoic]: 5.31.

Turning to `COc1cc(NCCc2c[nH]c3ccccc23)c(C(=O)O)cc1Br` [Example 69, 2-((2-(1H-Indol-3-yl)ethyl)amino)-5-bromo-4-methoxybenzoic acid], the pIC50 at CDK2 [1] was 4.55. Compound `Cc1cc(C(=O)O)c(NCCc2c[nH]c3ccccc23)cc1Cl` [Example 70, 2-((2-(1H-Indol-3-yl)ethyl)amino)-4-chloro-5-methylbenzoic acid] gave a negative logarithm of the IC50 (pIC50) on CDK2 [1] of 4.96. Moreover, the negative-log Kd (pKd) on CDK2 [2] is 5.20. `COc1cc(NCCc2c[nH]c3ccccc23)c(C(=O)O)cc1OC` [Example 71, 2-((2-(1H-Indol-3-yl)ethyl)amino)-4,5-dimethoxybenzoic acid] showed a pKd at CDK2 [2] of 5.00.

As for `O=C(O)c1cc2c(cc1NCCc1c[nH]c3ccccc13)OCCO2` [Example 73, 7-((2-(1H-Indol-3-yl)ethyl)amino)-2,3-dihydrobenzo[b][1,4]dioxine-6-carboxylic acid], the pKd at CDK2 [2] was 4.52. As to `Cc1ccc(NCCc2c[nH]c3ccccc23)c(C(=O)O)c1` [Example 76, 2-((2-(1H-Indol-3-yl)ethyl)amino)-5-methylbenzoic acid], the pKd at CDK2 [2] was 4.44. For the compound `CCc1ccc(NCCc2c[nH]c3ccccc23)c(C(=O)O)c1` [Example 77, 2-((2-(1H-Indol-3-yl)ethyl)amino)-5-ethylbenzoic acid], on CDK2 [1], the negative logarithm of the IC50 (pIC50) is 4.74. This compound gave a pKd on CDK2 [2] of 4.66.

`O=C(O)c1cc(-c2ccccc2)ccc1NCCc1c[nH]c2ccccc12` [Example 79, 4-((2-(1H-Indol-3-yl)ethyl)amino)-[1,1′-biphenyl]-3-carboxylic acid] showed a pIC50 at CDK2 [1] of 4.96. Moreover, at CDK2 [2], the pKd was below 4.00.

In the case of `CC(C)(C)c1ccc(NCCc2c[nH]c3ccccc23)c(C(=O)O)c1` [Example 80, 2-((2-(1H-Indol-3-yl)ethyl)amino)-5-(tert-butyl)benzoic acid], the pIC50 on CDK2 [1] is 4.68. For the same compound, the negative-log Kd (pKd) on CDK2 [2] is below 4.00. For the compound `CCCc1ccc(NCCc2c[nH]c3ccccc23)c(C(=O)O)c1` [Example 81, 2-((2-(1H-Indol-3-yl)ethyl)amino)-5-propylbenzoic acid], on CDK2 [1], the negative logarithm of the IC50 (pIC50) is 5.25. On CDK2 [2], this compound had a pKd of 5.19. At CDK2 [2], `CCSc1ccc(NCCc2c[nH]c3ccccc23)c(C(=O)O)c1` [Example 85, 2-((2-(1H-Indol-3-yl)ethyl)amino)-5-(ethylthio)benzoic acid] showed a pKd of 5.04.

The compound `O=C(O)c1c(NCCc2c[nH]c3ccccc23)cccc1[N+](=O)[O-]` [Example 88, 2-((2-(1H-Indol-3-yl)ethyl)amino)-6-nitrobenzoic acid] showed a negative logarithm of the IC50 (pIC50) on CDK2 [1] of 4.03. The compound also showed a pKd at CDK2 [2] of 4.10.

Take `O=C(O)c1c(NCCc2c[nH]c3ccccc23)cccc1C(F)(F)F` [Example 89, 2-((2-(1H-Indol-3-yl)ethyl)amino)-6-(trifluoromethyl)benzoic acid]: on CDK2 [1], the pIC50 is 3.92. `N#Cc1cccc(NCCc2c[nH]c3ccccc23)c1C(=O)O` [Example 90, 2-((2-(1H-Indol-3-yl)ethyl)amino)-6-cyanobenzoic acid]: the negative logarithm of the IC50 (pIC50) at CDK2 [1] is 4.43. Compound `O=Cc1ccc(NCCc2c[nH]c3ccccc23)c(C(=O)O)c1` [Example 91, 2-((2-(1H-Indol-3-yl)ethyl)amino)-5-formylbenzoic acid] had a pIC50 at CDK2 [1] of 4.44. On CDK2 [1], `O=C(O)c1cc([N+](=O)[O-])ccc1NCCc1c(C(=O)O)[nH]c2ccccc12` [Example 93, 3-(2-((2-Carboxy-4-nitrophenyl)amino)ethyl)-1H-indole-2-carboxylic acid] showed a pIC50 of 4.80. On the same count and under the same terms, then `O=C(O)c1cc(C(F)(F)F)ccc1NCCc1c[nH]c2cccc(O)c12` [Example 94, 2-((2-(4-Hydroxy-1H-indol-3-yl)ethyl)amino)-5-(trifluoromethyl)benzoic acid], with 4.29; and `O=C(O)c1cc(C(F)(F)F)ccc1NCCc1c[nH]c2cc(O)ccc12` [Example 95, 2-((2-(6-Hydroxy-1H-indol-3-yl)ethyl)amino)-5-(trifluoromethyl)benzoic acid], with 4.04.
